Key:
[1] = system: Klebsiella pneumoniae ATCC 4352; assay: Coated coupon surface antimicrobial test, Klebsiella pneumoniae; assay type: cell-based; conditions: Stainless Steel 2″ × 2″ coupons, tested by Applicant, challenged with 3.8 × 10^7 bacteria; copolymer 0.0299 g/m2, Aegis 2.36 g/m2
Method: (§1) The silylated copolymer of Example II hereinabove was dissolved in isopropanol (IPA) to give a 30% w/v (IPA) solution. This IPA solution was then diluted to a 0.1% w/v concentration with additional IPA solvent.
(§2) 2″×2″ test coupons of Formica and 316 Stainless Steel were first washed with soap and water then wiped with a 70 wt. % aqueous ethanol solution and dried. The copolymer 2600 solution was applied via misting onto the coupon surfaces using a Preval sprayer. The surfaces of the coupons were sprayed until completely covered by the copolymer solution and then dried horizontally for >3 hr. at room temperature. Control coupons were sprayed with 30 wt. % aqueous IPA solution followed by drying under identical conditions. The final areal concentration of the dried copolymer on the test coupon surface was 0.0299 g/m2. All coupons were then irradiated with a C wavelength germicidal Ultraviolet Lamp (UVC) situated within a biosafety cabinet. […]
Antimicrobial; testing was performed by Applicant and independently by Professor. Charles Gerba, Ph.D. As a control, Applicant also determined the antimicrobial properties of a material sold in commerce by Aegis under the tradename AEM 5772-5. […]

[2] = system: Staphylococcus aureus ATCC 6538; assay: Coated coupon surface antimicrobial test, Staphylococcus aureus; assay type: cell-based; conditions: Stainless Steel 2″ × 2″ coupons, tested by Applicant, challenged with 1.1 × 10^7 bacteria; copolymer 0.0299 g/m2, Aegis 2.36 g/m2
Method: as §1, §2
Antimicrobial; testing was performed by Applicant and independently by Professor. Charles Gerba, Ph.D. As a control, Applicant also determined the antimicrobial properties of a material sold in commerce by Aegis under the tradename AEM 5772-5.

## CCCCCCCCCCCCCCCCCC[N+](C)(C)CCC[Si](O)(O)O.[Cl-] [Aegis Quaternary Ammonium Silane, 3-(trihydroxysilyl) propyldimethyloctadecyl ammonium chloride]
[1]
  Ave. Log10 Reduction ± SD v. control 12 min exposure: 1.15 ± 0.26 log10
[2]
  Ave. Log10 Reduction ± SD v. control 10 min exposure: 0.00 log10

Source: US9403944B2, “Antipathogenic guanidinium copolymer” (priority 2012, dated 2016)
